For O=C(O)CC(S)C(=O)O (stereo not drawn), the solubility (mole fraction) (in acetone, 278.15 K) was 0.133, the solubility (mole fraction) (in acetone, 283.15 K) was 0.142 and the solubility (mole fraction) (in acetone, 288.15 K) was 0.149. It also gave a solubility (mole fraction) (in acetone, 293.15 K) of 0.159, a solubility (mole fraction) (in acetone, 298.15 K) of 0.168 and a solubility (mole fraction) (in acetone, 303.15 K) of 0.178. The solubility (mole fraction) (in acetone, 308.15 K) was 0.19, the solubility (mole fraction) (in acetone, 313.15 K) was 0.202 and the solubility (mole fraction) (in acetone, 318.15 K) was 0.213. It also gave a solubility (mole fraction) (in acetone, 323.15 K) of 0.226, a solubility (mole fraction) (in acetone, 328.15 K) of 0.24 and a solubility (mole fraction) (in acetonitrile, 278.15 K) of 0.0114. It also gave a solubility (mole fraction) (in acetonitrile, 283.15 K) of 0.0159, a solubility (mole fraction) (in acetonitrile, 288.15 K) of 0.0212 and a solubility (mole fraction) (in acetonitrile, 293.15 K) of 0.0296. The solubility (mole fraction) (in acetonitrile, 298.15 K) was 0.0392, the solubility (mole fraction) (in acetonitrile, 303.15 K) was 0.0513 and the solubility (mole fraction) (in acetonitrile, 308.15 K) was 0.0656. The solubility (mole fraction) (in acetonitrile, 313.15 K) was 0.0853, the solubility (mole fraction) (in acetonitrile, 318.15 K) was 0.108 and the solubility (mole fraction) (in acetonitrile, 323.15 K) was 0.135. It also gave a solubility (mole fraction) (in acetonitrile, 328.15 K) of 0.168, a solubility (mole fraction) (in acetonitrile, 333.15 K) of 0.206 and a solubility (mole fraction) (in ethanol, 278.15 K) of 0.138. The solubility (mole fraction) (in ethanol, 283.15 K) was 0.154, the solubility (mole fraction) (in ethanol, 288.15 K) was 0.169 and the solubility (mole fraction) (in ethanol, 293.15 K) was 0.186. For the same compound, the solubility (mole fraction) (in ethanol, 298.15 K) was 0.205, the solubility (mole fraction) (in ethanol, 303.15 K) was 0.224 and the solubility (mole fraction) (in ethanol, 308.15 K) was 0.244. It also gave a solubility (mole fraction) (in ethanol, 313.15 K) of 0.265, a solubility (mole fraction) (in ethanol, 318.15 K) of 0.287 and a solubility (mole fraction) (in ethanol, 323.15 K) of 0.31. The solubility (mole fraction) (in ethanol, 328.15 K) was 0.335, the solubility (mole fraction) (in ethanol, 333.15 K) was 0.361 and the solubility (mole fraction) (in ethyl acetate, 278.15 K) was 0.0454. The solubility (mole fraction) (in ethyl acetate, 283.15 K) was 0.0482, the solubility (mole fraction) (in ethyl acetate, 288.15 K) was 0.0515 and the solubility (mole fraction) (in ethyl acetate, 293.15 K) was 0.0547. The solubility (mole fraction) (in ethyl acetate, 298.15 K) was 0.0595, the solubility (mole fraction) (in ethyl acetate, 303.15 K) was 0.0634 and the solubility (mole fraction) (in ethyl acetate, 308.15 K) was 0.068. For the same compound, the solubility (mole fraction) (in ethyl acetate, 313.15 K) was 0.0732, the solubility (mole fraction) (in ethyl acetate, 318.15 K) was 0.0787 and the solubility (mole fraction) (in ethyl acetate, 323.15 K) was 0.0849. It also gave a solubility (mole fraction) (in ethyl acetate, 328.15 K) of 0.0915, a solubility (mole fraction) (in ethyl acetate, 333.15 K) of 0.0991 and a solubility (mole fraction) (in isopropanol, 278.15 K) of 0.1. It also gave a solubility (mole fraction) (in isopropanol, 283.15 K) of 0.112, a solubility (mole fraction) (in isopropanol, 288.15 K) of 0.126 and a solubility (mole fraction) (in isopropanol, 293.15 K) of 0.141. It also gave a solubility (mole fraction) (in isopropanol, 298.15 K) of 0.156, a solubility (mole fraction) (in isopropanol, 303.15 K) of 0.174 and a solubility (mole fraction) (in isopropanol, 308.15 K) of 0.192. It also gave a solubility (mole fraction) (in isopropanol, 313.15 K) of 0.212, a solubility (mole fraction) (in isopropanol, 318.15 K) of 0.233 and a solubility (mole fraction) (in isopropanol, 323.15 K) of 0.256. It also gave a solubility (mole fraction) (in isopropanol, 328.15 K) of 0.28, a solubility (mole fraction) (in isopropanol, 333.15 K) of 0.305 and a solubility (mole fraction) (in methanol, 278.15 K) of 0.117. It also gave a solubility (mole fraction) (in methanol, 283.15 K) of 0.136, a solubility (mole fraction) (in methanol, 288.15 K) of 0.157 and a solubility (mole fraction) (in methanol, 293.15 K) of 0.178. It also gave a solubility (mole fraction) (in methanol, 298.15 K) of 0.203, a solubility (mole fraction) (in methanol, 303.15 K) of 0.228 and a solubility (mole fraction) (in methanol, 308.15 K) of 0.256. For the same compound, the solubility (mole fraction) (in methanol, 313.15 K) was 0.285, the solubility (mole fraction) (in methanol, 318.15 K) was 0.314 and the solubility (mole fraction) (in methanol, 323.15 K) was 0.345. It also gave a solubility (mole fraction) (in methanol, 328.15 K) of 0.379, a solubility (mole fraction) (in methanol, 333.15 K) of 0.412 and a solubility (mole fraction) (in n-butanol, 278.15 K) of 0.0909. For the same compound, the solubility (mole fraction) (in n-butanol, 283.15 K) was 0.105, the solubility (mole fraction) (in n-butanol, 288.15 K) was 0.118 and the solubility (mole fraction) (in n-butanol, 293.15 K) was 0.134. For the same compound, the solubility (mole fraction) (in n-butanol, 298.15 K) was 0.153, the solubility (mole fraction) (in n-butanol, 303.15 K) was 0.172 and the solubility (mole fraction) (in n-butanol, 308.15 K) was 0.192. It also gave a solubility (mole fraction) (in n-butanol, 313.15 K) of 0.213, a solubility (mole fraction) (in n-butanol, 318.15 K) of 0.236 and a solubility (mole fraction) (in n-butanol, 323.15 K) of 0.261. It also gave a solubility (mole fraction) (in n-butanol, 328.15 K) of 0.286 and a solubility (mole fraction) (in n-butanol, 333.15 K) of 0.313.

Source: BigSolDB 2.1
